# Assay results: US11981658B2, “Substituted aminopyridine compounds as EGFR inhibitors” (YUHAN CORPORATION, priority 2021, dated 2024)
# Like-named read-outs stand apart in the source and are kept apart here.
# What was measured:
# EGFR Del19/T790M/C797S = EGFR Del19/T790M/C797S (Homo sapiens, UniProt P00533, C797S/DEL746-750/T790M); experiment: Biochemical EGFR kinase inhibition assay (Lance Ultra TR-FRET), triple mutant del19/T790M/C797S
# In short: (§1)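 In this biochemical assay, phosphorylation after a one-hour room-temperature reaction was detected with europium-labelled anti-phosphopeptide antibody at 2 nM final concentration.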
# EGFR Del19/C797S = EGFR Del19/C797S (Homo sapiens, UniProt P00533, C797S/DEL746-750); experiment: Biochemical EGFR kinase inhibition assay (Lance Ultra TR-FRET), double mutant del19/C797S
# EGFR Del19/C797S, sequence (P00533 with tags, fused parts or gaps DEL746-750/C797S): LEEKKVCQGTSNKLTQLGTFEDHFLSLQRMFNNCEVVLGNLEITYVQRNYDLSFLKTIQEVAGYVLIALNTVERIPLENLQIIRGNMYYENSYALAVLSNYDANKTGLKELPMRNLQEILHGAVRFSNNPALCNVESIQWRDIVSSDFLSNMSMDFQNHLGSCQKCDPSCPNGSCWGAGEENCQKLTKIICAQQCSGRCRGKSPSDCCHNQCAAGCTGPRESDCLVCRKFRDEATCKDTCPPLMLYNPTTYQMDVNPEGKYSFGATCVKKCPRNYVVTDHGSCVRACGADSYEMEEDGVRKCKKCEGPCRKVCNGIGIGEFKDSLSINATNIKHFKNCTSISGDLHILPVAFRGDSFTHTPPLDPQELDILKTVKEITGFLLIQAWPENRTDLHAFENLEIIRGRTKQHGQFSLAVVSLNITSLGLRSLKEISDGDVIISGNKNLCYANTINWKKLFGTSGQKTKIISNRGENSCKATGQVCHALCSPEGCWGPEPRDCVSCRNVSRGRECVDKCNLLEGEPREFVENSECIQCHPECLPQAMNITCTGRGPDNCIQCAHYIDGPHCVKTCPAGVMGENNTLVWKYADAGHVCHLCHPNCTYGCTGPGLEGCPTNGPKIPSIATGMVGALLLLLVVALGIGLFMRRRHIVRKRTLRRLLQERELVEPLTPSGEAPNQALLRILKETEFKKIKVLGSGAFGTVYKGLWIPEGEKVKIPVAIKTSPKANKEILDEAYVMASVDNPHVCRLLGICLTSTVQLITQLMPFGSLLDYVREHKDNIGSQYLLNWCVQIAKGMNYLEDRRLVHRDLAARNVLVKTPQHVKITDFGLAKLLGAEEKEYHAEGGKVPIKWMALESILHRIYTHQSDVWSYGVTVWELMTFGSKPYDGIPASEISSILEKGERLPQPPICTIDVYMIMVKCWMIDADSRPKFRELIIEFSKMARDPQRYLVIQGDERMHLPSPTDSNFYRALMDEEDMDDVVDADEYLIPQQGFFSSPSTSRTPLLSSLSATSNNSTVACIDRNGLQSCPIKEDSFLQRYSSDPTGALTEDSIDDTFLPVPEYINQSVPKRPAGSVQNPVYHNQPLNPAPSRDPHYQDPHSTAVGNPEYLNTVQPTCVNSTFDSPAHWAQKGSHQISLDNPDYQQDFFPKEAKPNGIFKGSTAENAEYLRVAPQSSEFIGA
# In short: as §1
# EGFR L858R/C797S = EGFR L858R/C797S (Homo sapiens, UniProt P00533, C797S/L858R); experiment: Biochemical EGFR kinase inhibition assay (Lance Ultra TR-FRET), double mutant L858R/C797S
# EGFR L858R/C797S, sequence (P00533 25-1210 C797S/L858R): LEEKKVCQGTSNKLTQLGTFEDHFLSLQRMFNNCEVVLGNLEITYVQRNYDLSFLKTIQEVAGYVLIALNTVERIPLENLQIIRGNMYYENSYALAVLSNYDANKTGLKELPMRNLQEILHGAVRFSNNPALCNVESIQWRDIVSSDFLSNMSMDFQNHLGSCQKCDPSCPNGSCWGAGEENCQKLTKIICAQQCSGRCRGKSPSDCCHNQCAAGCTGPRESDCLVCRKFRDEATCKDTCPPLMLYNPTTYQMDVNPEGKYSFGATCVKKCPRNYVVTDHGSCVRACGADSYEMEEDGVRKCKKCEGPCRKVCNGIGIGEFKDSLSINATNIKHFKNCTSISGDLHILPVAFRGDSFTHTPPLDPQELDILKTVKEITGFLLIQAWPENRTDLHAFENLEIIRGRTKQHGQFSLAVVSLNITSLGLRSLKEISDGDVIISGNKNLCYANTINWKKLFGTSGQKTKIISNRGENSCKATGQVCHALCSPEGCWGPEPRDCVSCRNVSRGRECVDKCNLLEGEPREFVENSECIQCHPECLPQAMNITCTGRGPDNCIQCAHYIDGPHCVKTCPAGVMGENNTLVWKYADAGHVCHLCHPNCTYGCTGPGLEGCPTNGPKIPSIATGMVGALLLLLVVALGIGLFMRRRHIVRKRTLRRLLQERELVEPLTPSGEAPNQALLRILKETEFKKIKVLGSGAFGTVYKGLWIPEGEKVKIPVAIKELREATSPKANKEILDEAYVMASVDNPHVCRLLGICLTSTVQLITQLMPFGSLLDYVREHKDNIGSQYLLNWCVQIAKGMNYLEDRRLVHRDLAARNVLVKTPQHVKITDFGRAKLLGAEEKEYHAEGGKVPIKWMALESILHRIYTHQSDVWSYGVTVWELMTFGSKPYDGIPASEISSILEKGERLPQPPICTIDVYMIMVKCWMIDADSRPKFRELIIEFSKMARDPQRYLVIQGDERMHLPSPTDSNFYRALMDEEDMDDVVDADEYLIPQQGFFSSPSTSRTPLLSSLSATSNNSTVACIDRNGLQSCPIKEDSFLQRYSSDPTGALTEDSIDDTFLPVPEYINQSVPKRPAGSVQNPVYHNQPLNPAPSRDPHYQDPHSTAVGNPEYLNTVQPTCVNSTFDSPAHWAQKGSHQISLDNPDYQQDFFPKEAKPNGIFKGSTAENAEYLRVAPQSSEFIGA
# In short: as §1
# EGFR L858R/T790M/C797S = EGFR L858R/T790M/C797S (Homo sapiens, UniProt P00533, C797S/L858R/T790M); experiment: Biochemical EGFR kinase inhibition assay (Lance Ultra TR-FRET), triple mutant L858R/T790M/C797S
# EGFR L858R/T790M/C797S, sequence (P00533 25-1210 T790M/C797S/L858R): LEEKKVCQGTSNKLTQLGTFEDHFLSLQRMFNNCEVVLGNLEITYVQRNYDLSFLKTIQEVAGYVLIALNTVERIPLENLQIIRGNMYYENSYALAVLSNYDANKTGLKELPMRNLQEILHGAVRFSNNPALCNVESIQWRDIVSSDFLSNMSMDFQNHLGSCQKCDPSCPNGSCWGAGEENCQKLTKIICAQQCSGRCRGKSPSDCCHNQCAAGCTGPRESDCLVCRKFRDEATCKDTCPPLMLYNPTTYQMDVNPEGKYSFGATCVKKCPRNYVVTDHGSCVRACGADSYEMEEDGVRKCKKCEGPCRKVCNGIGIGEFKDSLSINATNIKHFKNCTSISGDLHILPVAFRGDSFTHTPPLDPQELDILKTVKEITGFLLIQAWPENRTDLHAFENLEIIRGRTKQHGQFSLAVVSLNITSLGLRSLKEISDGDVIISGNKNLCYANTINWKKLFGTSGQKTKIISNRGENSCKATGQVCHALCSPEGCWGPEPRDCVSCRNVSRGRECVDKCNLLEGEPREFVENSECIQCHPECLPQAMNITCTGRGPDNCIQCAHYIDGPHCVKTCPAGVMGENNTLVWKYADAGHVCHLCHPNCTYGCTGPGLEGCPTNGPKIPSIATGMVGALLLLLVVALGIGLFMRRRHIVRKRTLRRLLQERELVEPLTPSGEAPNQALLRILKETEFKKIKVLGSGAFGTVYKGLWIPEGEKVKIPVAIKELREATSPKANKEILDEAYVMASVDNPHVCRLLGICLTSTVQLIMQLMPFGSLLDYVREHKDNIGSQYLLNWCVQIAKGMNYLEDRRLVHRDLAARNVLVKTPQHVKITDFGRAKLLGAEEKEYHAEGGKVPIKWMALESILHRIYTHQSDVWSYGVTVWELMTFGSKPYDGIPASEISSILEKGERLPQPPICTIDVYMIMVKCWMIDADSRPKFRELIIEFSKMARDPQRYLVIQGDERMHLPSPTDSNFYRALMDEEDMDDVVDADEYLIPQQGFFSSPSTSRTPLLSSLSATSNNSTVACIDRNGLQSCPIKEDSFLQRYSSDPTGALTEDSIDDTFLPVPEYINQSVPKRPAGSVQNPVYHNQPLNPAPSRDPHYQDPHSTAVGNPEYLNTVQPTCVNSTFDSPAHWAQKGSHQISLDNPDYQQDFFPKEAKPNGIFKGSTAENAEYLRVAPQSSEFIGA
# In short: as §1
# EGFR wildtype (WT) = EGFR wildtype (WT) (Homo sapiens, UniProt P00533); experiment: Biochemical EGFR kinase inhibition assay (Lance Ultra TR-FRET), wildtype
# EGFR wildtype (WT), sequence (P00533 25-1210): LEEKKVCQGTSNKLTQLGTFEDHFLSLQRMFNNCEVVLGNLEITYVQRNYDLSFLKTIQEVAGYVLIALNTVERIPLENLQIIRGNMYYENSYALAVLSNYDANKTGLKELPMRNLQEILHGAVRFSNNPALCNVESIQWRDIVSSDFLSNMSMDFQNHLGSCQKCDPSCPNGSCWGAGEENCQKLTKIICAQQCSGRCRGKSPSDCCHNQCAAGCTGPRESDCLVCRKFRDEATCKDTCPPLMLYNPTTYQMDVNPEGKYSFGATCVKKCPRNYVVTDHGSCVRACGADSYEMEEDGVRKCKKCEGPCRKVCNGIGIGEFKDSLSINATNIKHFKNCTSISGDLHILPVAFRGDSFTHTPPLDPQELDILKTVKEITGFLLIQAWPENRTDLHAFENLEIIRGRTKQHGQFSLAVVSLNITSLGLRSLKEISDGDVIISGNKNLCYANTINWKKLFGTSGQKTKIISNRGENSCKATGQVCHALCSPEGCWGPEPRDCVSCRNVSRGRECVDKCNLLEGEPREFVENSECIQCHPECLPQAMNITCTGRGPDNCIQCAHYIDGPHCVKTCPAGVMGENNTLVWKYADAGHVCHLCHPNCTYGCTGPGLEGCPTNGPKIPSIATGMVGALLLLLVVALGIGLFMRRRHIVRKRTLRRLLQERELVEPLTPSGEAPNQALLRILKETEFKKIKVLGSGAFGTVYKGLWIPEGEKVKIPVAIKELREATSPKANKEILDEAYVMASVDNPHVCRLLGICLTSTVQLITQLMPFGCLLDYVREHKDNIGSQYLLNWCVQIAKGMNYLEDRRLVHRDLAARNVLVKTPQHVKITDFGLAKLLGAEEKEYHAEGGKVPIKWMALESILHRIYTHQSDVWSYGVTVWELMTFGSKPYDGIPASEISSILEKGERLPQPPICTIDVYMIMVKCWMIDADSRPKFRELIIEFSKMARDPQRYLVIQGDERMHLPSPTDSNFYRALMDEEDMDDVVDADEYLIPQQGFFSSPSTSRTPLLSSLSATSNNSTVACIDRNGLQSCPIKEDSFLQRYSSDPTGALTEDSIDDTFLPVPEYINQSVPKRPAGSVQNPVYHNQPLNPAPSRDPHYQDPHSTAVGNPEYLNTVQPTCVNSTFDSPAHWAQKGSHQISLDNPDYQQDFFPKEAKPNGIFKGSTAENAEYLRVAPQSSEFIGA
# In short: as §1
# [1] = IC50 Del19/T790M/C797S (nM), 100 μM ATP
# [2] = IC50 Del19/C797S (nM), 100 μM ATP
# [3] = IC50 L858R/C797S (nM), 100 μM ATP
# [4] = IC50 L858R/T790M/C797S (nM), 100 μM ATP
# [5] = Km ATP, read-out: IC50 Del19/T790M/C797S (nM), Km ATP
# [6] = Km ATP, read-out: IC50 Del19/C797S (nM), Km ATP
# [7] = Km ATP, read-out: IC50 L858R/C797S (nM), Km ATP
# [8] = Km ATP, read-out: IC50 L858R/T790M/C797S (nM), Km ATP
# [9] = Km ATP, read-out: IC50 WT (nM), Km ATP
# [10] = ATP at Km, read-out: IC50 Del19/T790M/C797S (nM), Km ATP
# [11] = ATP at Km, read-out: IC50 Del19/C797S (nM), Km ATP
# [12] = ATP at Km, read-out: IC50 L858R/C797S (nM), Km ATP
# [13] = ATP at Km, read-out: IC50 L858R/T790M/C797S (nM), Km ATP
# [14] = ATP at Km, read-out: IC50 WT (nM), Km ATP
IC50 (EGFR Del19/T790M/C797S; [1]),IC50 (EGFR Del19/C797S; [2]),IC50 (EGFR L858R/C797S; [3]),IC50 (EGFR L858R/T790M/C797S; [4]),"IC50 (EGFR wildtype (WT); IC50 WT (nM), 100 μM ATP)","IC50 (EGFR L858R/C797S; Km ATP, read-out: IC50 L858R/C797S (nM) Km ATP)",IC50 (EGFR Del19/T790M/C797S; [5]),IC50 (EGFR Del19/C797S; [6]),IC50 (EGFR L858R/C797S; [7]),IC50 (EGFR L858R/T790M/C797S; [8]),IC50 (EGFR wildtype (WT); [9]),IC50 (EGFR Del19/T790M/C797S; [10]),IC50 (EGFR Del19/C797S; [11]),IC50 (EGFR L858R/C797S; [12]),IC50 (EGFR L858R/T790M/C797S; [13]),IC50 (EGFR wildtype (WT); [14]),SMILES
1 nM,88.3 nM,306 nM,2 nM,> 10000 nM,–,–,–,–,–,–,–,–,–,–,–,"CC(C)NC1CCN(c2cc(Nc3ccnc(-c4cnn(S(=O)(=O)C5CC5)c4)n3)ncc2C#Cc2cnn(C)c2)CC1 [Example 64, 2-(1-(Cyclopropylsulfonyl)-1H-pyrazol-4-yl)-N-(4-(4-(isopropylamino)piperidin-1-yl)-5-((1-methyl-1H-pyrazol-4-yl)ethynyl)pyridin-2-yl)pyrimidin-4-amine]"
0.1 nM,0.8 nM,10.3 nM,1.4 nM,2910 nM,–,–,–,–,–,–,–,–,–,–,–,"CN(C)CCC1CCN(c2cc(Nc3ccnc(-c4cnn(S(=O)(=O)C5CC5)c4)n3)ncc2C#CC2CCN(C(=O)C(F)(F)F)C2)CC1 (stereo not shown) [Example 413, 1-(3-((6-((2-(1-(Cyclopropylsulfonyl)-1H-pyrazol-4-yl)pyrimidin-4-yl)amino)-4-(4-(2-(dimethylamino)ethyl)piperidin-1-yl)pyridin-3-yl)ethynyl)pyrrolidin-1-yl)-2,2,2-trifluoroethan-1-one]"
20.6 nM,7.6 nM,67.3 nM,17.7 nM,> 10000 nM,–,–,–,–,–,–,–,–,–,–,–,"CC1(CO)CCN(c2cc(Nc3ccnc(-c4cnn(S(=O)(=O)C5CC5)c4)n3)ncc2C#Cc2ccccc2)CC1 [Example 256, (1-(2-((2-(1-(Cyclopropylsulfonyl)-1H-pyrazol-4-yl)pyrimidin-4-yl)amino)-5-(phenylethynyl)pyridin-4-yl)-4-methylpiperidin-4-yl)methanol]"
1.4 nM,32.3 nM,66.2 nM,6.9 nM,> 10000 nM,–,–,–,–,–,–,–,–,–,–,–,"Cc1nc(C#Cc2cnc(Nc3ccnc(-c4cnn(S(=O)(=O)C5CC5)c4)n3)cc2N2CCC(O)CC2)cs1 [Example 211, 1-(2-((2-(1-(Cyclopropylsulfonyl)-1H-pyrazol-4-yl)pyrimidin-4-yl)amino)-5-((2-methylthiazol-4-yl)ethynyl)pyridin-4-yl)piperidin-4-ol]"
2.6 nM,53.6 nM,203 nM,8.8 nM,> 10000 nM,32.3 nM,–,–,–,–,–,–,–,–,–,–,"Cn1cc(C#Cc2cnc(Nc3ccnc(-c4cnn(S(=O)(=O)C5CC5)c4)n3)cc2NCC(C)(C)CO)cn1 [Example 39, 3-((2-((2-(1-Cyclopropylsulfonylpyrazol-4-yl)pyrimidin-4-yl)amino)-5-(2-(1-methylpyrazol-4-yl)ethynyl)-4-pyridyl)amino)-2,2-dimethyl-propan-1-ol]"
1.3 nM,10.9 nM,49.6 nM,3.1 nM,> 10000 nM,–,–,–,–,–,–,–,–,–,–,–,"CN(C)C[C@@H]1CCCN(c2cc(Nc3ccnc(-c4cnn(S(=O)(=O)C5CC5)c4)n3)ncc2C#Cc2cnn(C)c2)C1 [Example 384, (S)-2-(1-(Cyclopropylsulfonyl)-1H-pyrazol-4-yl)-N-(4-(3-((dimethylamino)methyl)piperidin-1-yl)-5-((1-methyl-1H-pyrazol-4-yl)ethynyl)pyridin-2-yl)pyrimidin-4-amine]"
1.4 nM,23.9 nM,73.9 nM,6.4 nM,> 10000 nM,–,–,–,–,–,–,–,–,–,–,–,"Cn1ncc(C#Cc2cnc(Nc3ccnc(-c4cnn(S(=O)(=O)C5CC5)c4)n3)cc2N2CCC(O)CC2)c1C1CC1 [Example 86, 1-(5-((5-Cyclopropyl-1-methyl-1H-pyrazol-4-yl)ethynyl)-2-((2-(1-(cyclopropylsulfonyl)-1H-pyrazol-4-yl)pyrimidin-4-yl)amino)pyridin-4-yl)piperidin-4-ol]"
0.1 nM,2.2 nM,13.5 nM,0.4 nM,4300 nM,–,–,–,–,–,–,–,–,–,–,–,"CC1(CO)CCN(c2cc(Nc3ccnc(-c4cnn(S(=O)(=O)C5CC5)c4)n3)ncc2C#CCC2(O)COC2)CC1 [Example 286, 3-(3-(6-((2-(1-(Cyclopropylsulfonyl)-1H-pyrazol-4-yl)pyrimidin-4-yl)amino)-4-(4-(hydroxymethyl)-4-methylpiperidin-1-yl)pyridin-3-yl)prop-2-yn-1-yl)oxetan-3-ol]"
1.2 nM,3.7 nM,77.8 nM,1.6 nM,7620 nM,–,1.6 nM,4.9 nM,12.8 nM,0.8 nM,44.2 nM,–,–,–,–,–,"CC1(CO)CCN(c2cc(Nc3ccnc(-c4cnn(S(=O)(=O)C5CC5)c4)n3)ncc2C#CC2(O)CCC2)CC1 [Example 351, 1-((6-((2-(1-(Cyclopropylsulfonyl)-1H-pyrazol-4-yl)pyrimidin-4-yl)amino)-4-(4-(hydroxymethyl)-4-methylpiperidin-1-yl)pyridin-3-yl)ethynyl)cyclobutan-1-ol]"
7.1 nM,81.9 nM,2120 nM,3.1 nM,> 10000 nM,–,–,–,–,–,–,4 nM,51.2 nM,18.9 nM,2.2 nM,108 nM,"Cc1nn(S(=O)(=O)N(C)C)cc1-c1nccc(Nc2cc(N3CCC(C)(CO)CC3)c(C#Cc3cnn(C(F)(F)F)c3)cn2)n1 [Example 272, 4-(4-((4-(4-(Hydroxymethyl)-4-methylpiperidin-1-yl)-5-((1-(trifluoromethyl)-1H-pyrazol-4-yl)ethynyl)pyridin-2-yl)amino)pyrimidin-2-yl)-N, N,3-trimethyl-1H-pyrazole-1-sulfonamide]"
3.9 nM,21.7 nM,41 nM,3 nM,> 10000 nM,–,–,–,–,–,–,–,–,–,–,–,"Cn1cc(C#Cc2cnc(Nc3ccnc(-c4cnn(S(=O)(=O)C5CC5)c4)n3)cc2N2CCC(C(C)(C)CO)CC2)cn1 [Example 14, 2-(1-(2-((2-(1-(Cyclopropylsulfonyl)-1H-pyrazol-4-yl)pyrimidin-4-yl)amino)-5-((1-methyl-1H-pyrazol-4-yl)ethynyl)pyridin-4-yl)piperidin-4-yl)-2-methylpropan-1-ol]"
0.9 nM,1.1 nM,9.1 nM,0.8 nM,6520 nM,–,–,–,–,–,–,0.8 nM,0.8 nM,0.9 nM,0.3 nM,7.6 nM,"CC1(CO)CCN(c2cc(Nc3ccnc(-c4cnn(S(=O)(=O)C5CC5)c4)n3)ncc2C#Cc2cccc(C(=O)N3CCOCC3)n2)CC1 [Example 265, (6-((6-((2-(1-(Cyclopropylsulfonyl)-1H-pyrazol-4-yl)pyrimidin-4-yl)amino)-4-(4-(hydroxymethyl)-4-methylpiperidin-1-yl)pyridin-3-yl)ethynyl)pyridin-2-yl)(morpholino)methanone]"
1 nM,0.6 nM,13.8 nM,1.6 nM,2610 nM,–,–,–,–,–,–,0.8 nM,0.7 nM,1 nM,0.4 nM,4.6 nM,"CC1(CO)CCN(c2cc(Nc3ccnc(-c4cnn(S(=O)(=O)C5CC5)c4)n3)ncc2C#Cc2cnn(CC3COCCO3)c2)CC1 (stereo not shown) [Example 242, (1-(5-((1-((1,4-Dioxan-2-yl)methyl)-1H-pyrazol-4-yl)ethynyl)-2-((2-(1-(cyclopropylsulfonyl)-1H-pyrazol-4-yl)pyrimidin-4-yl)amino)pyridin-4-yl)-4-methylpiperidin-4-yl)methanol]"
0.7 nM,1.7 nM,3.2 nM,0.6 nM,4900 nM,–,0.5 nM,1.1 nM,0.9 nM,0.1 nM,10.7 nM,–,–,–,–,–,"CN1CCN(Cc2ccc(C#Cc3cnc(Nc4ccnc(-c5cnn(S(=O)(=O)C6CC6)c5)n4)cc3N[C@H]3CC[C@]4(CCC(=O)N4)CC3)cc2)CC1 [Example 362, (5s,8s)-8-((2-((2-(1-(Cyclopropylsulfonyl)-1H-pyrazol-4-yl)pyrimidin-4-yl)amino)-5-((4-((4-methylpiperazin-1-yl)methyl)phenyl)ethynyl)pyridin-4-yl)amino)-1-azaspiro[4.5]decan-2-one]"
3.2 nM,34.8 nM,1920 nM,8 nM,> 10000 nM,–,2.5 nM,13.1 nM,82 nM,1.3 nM,122 nM,–,–,–,–,–,"O=S(=O)(C1CC1)n1cc(-c2nccc(Nc3cc(NCC4CCC(O)CC4)c(C#CC4CCCO4)cn3)n2)cn1 (stereo not shown) [Example 375, (1 r,4r)-4-(((2-((2-(1-(Cyclopropylsulfonyl)-1H-pyrazol-4-yl)pyrimidin-4-yl)amino)-5-((tetrahydrofuran-2-yl)ethynyl)pyridin-4-yl)amino)methyl)cyclohexan-1-ol]"
